“And” between values parts separate entries of the source, which are not always exact repeats. Equal entries are not always repeated. “Also recorded” adds a separate entry of the source.

For series [1], the system named is photosynthetic electron transport chain in isolated spinach thylakoids. Nature of the series: Hill reaction: light-dependent ferricyanide reduction in isolated spinach thylakoids (basal). Type of series: biochemical, spinach (Spinacea oleracea L.). Particulars: basal conditions, 0.05–100 μM tested, triplicate; for IC50: read-out: IC50, inhibition by 50% of the light-dependent ferricyanide reduction. The procedure: The ability of natural rubrolides and their synthetic analogues to interfere with the chloroplast electron transport chain was evaluated by measuring the Hill reaction in thylakoid membranes isolated from spinach leaves. The results were summarized as the concentrations able to inhibit by 50% the rate measured in untreated controls (IC50, Table 2).
Thylakoid membranes were isolated from spinach (Spinacea oleracea L.) leaves. Plant material was resuspended in 5 mL g^–1 of ice-cold 20 mM Tricine-NaOH buffer (pH 8.0) containing 10 mM NaCl, 5 mM MgCl2, and 0.4 M sucrose and homogenized for 30 s in a blender at maximal speed. The homogenate was filtered through surgical gauze, and the filtrate was centrifuged at 4 °C for 1 min at 500g; the supernatant was further centrifuged for 10 min at 1,500g. Pelleted chloroplasts were osmotically swollen by resuspension in a sucrose-lacking buffer. The suspension was immediately diluted 1:1 with sucrose-containing buffer, kept on ice in the dark, and used within a few hours from the preparation. Chlorophyll content was calculated after diluting with 80% (v/v) acetone on the basis of Arnon’s formula. The basal rate of photosynthetic electron transport was measured by following light-driven ferricyanide reduction. Membrane aliquots corresponding to 3 μg of chlorophyll were incubated at 24 °C in wells of 96-well-plates in a final volume of 200 μL in the presence of 20 mM Tricine-NaOH buffer (pH 8.0), 10 mM NaCl, 5 mM MgCl2, 0.2 M sucrose, and 2 mM K3Fe(CN)6. The assay was initiated by exposure to saturating light (600 μmol m^–2 s^–1), and the rate of ferricyanide reduction was measured at 30 s intervals for 10 min using a Ledetect 96 plate reader (Labexim, Lengau, Austria) equipped with a LED plugin at 420 nm. Activity was calculated over the linear portion of the curve from a molar extinction coefficient of 1,000 M^–1 cm^–1. Rubrolides were dissolved in DMSO to obtain 10 mM solutions, which were then diluted with H2O, as appropriate. Their effect upon the Hill reaction was evaluated in parallel assays in which the compounds were added to the reaction mixture to concentrations ranging from 0.05 to 100 μM. Each dose was carried out at least in triplicate, and results were expressed as percentage of untreated controls. Mean values ± SE over replicates are reported. The concentrations causing 50% inhibition (IC50) and their confidence limits were estimated by nonlinear regression analysis using Prism 6 for Windows, version 6.03 (GraphPad Software).

For the next series, the target named is T1, PSII (Spinacia oleracea, UniProt P69560).
T1 construct: Thylakoid membranes were isolated from spinach (Spinacea oleracea L.) leaves; from tissue; host or cells: spinach leaves (thylakoid membranes)
Kind of series: Partial electron flow involving PSII only (excluding PSI). It is filed as biochemical, spinach (Spinacea oleracea L.). Particulars: DBMIB-blocked, phenylenediamine-restored flow excluding PSI. The text has this: An interference with the cytochrome b6f complex cannot be completely excluded, but this difference could simply rely on the experimental conditions employed. To evaluate the effect on PSII only, uncoupled activity is blocked by the addition of the cytochrome b6f inhibitor 2,5-dibromo-6-isopropyl-3-methyl-1,4-benzoquinone, and an electronic transfer from H2O to ferricyanide that excludes PSI is restored through addition of phenylenediamine. […] A similar effect was previously noticed also in the case of other inhibitors.[10b],[10e],[10j]
(§1) Phosphorylating electron flow was evaluated under the same conditions but in the presence of 0.5 mM ADP and 2 mM K2HPO4. Uncoupled activity was measured following the addition of 2 mM NH4Cl to the basal reaction mixture containing aliquots of membrane preparations corresponding to 1.5 μg of chlorophyll. To evaluate the effect on PSII only, uncoupled activity was blocked by the addition of the cytochrome b6f inhibitor 2,5-dibromo-6-isopropyl-3-methyl-1,4-benzoquinone (DBMIB) at […], and an electronic transfer from H2O to ferricyanide that excludes PSI (H2O → PSII → D1 protein → phenylendiamine → ferricyanide) was restored through the addition of 0.1 mM phenylenediamine. In this case, due to the lower reduction rate, aliquots of membrane preparations corresponding to 6 μg of chlorophyll were used.

Series [2] has as its system photosynthetic electron transport chain in isolated spinach chloroplast. Kind of series: Ferricyanide reduction under uncoupling and phosphorylating conditions. It is filed as biochemical, spinach (Spinacea oleracea L.). The following applies: 10^–7 to 10^–5 M range. As to the method:
Diuron was included as a positive control.
as §1

Another series concerns rapeseed. Also on record: method as in PMID 38695089. The following applies: cited from earlier work; for Inhibition of rapeseed growth: greenhouse treatments.
For another series, the system named is Raphanus sativus. Kind of series: Growth of Raphanus sativus seedlings sown in the presence of the compound. It is filed as in vivo, Raphanus sativus cv Scarlet Champion. Particulars: 10 μM in agarized medium; growth measured at three-leaf stage, 3 weeks after sowing. The procedure:
The ability of these compounds to interfere with plant growth was evaluated by measuring the growth of Raphanus sativus seedlings that had been sown in the presence of a given rubrolide. […] In that case, compound 5 was also found inhibitory, but at a 20-fold higher concentration (200 μM).
Figure 1 Effect of natural rubrolides 1–7 on the growth of the model plant Raphanus sativus. Seeds were sown in the presence of a given compound at a concentration of 10 μM. Controls received the same volume of DMSO (0.1%) used to dissolve the rubrolides. The commercial herbicide hexazinone was also included, as a positive control. Growth was measured when untreated plants reached the three-leaf stage, 3 weeks after sowing. Results were analyzed using Prism 6 for Windows by means of the Kolmogorov–Smirnov normality test (P = 0.05), and then subjected to 1-way ANOVA. […] Results were plotted as a box and whiskers plot showing 10–90th percentiles.
Seeds of Raphanus sativus cv Scarlet Champion were surface sterilized by treatment with ethanol for 4 min and with 3% NaClO containing 0.04% Triton X-100 for 8 min under vacuum. […] The fresh biomass of each seedling was measured at that point by a destructive harvest. […]

Take `O=C1O/C(=C\c2cc(Br)c(O)c(Br)c2)C(c2cc(Br)c(O)c(Br)c2)=C1Cl` [Compound 1, rubrolide B]: in series [1], the IC50 was 8.62 ± 1.89 µM.
As to `O=C1O/C(=C\c2ccc(O)c(Br)c2)C(c2ccc(O)c(Br)c2)=C1Cl` [Compound 3, rubrolide K], the IC50 in series [1] was 8 ± 2.05 µM.
As for `O=C1O/C(=C\c2ccc(O)c(Br)c2)C(c2cc(Br)c(O)c(Br)c2)=C1Cl` [Compound 4, rubrolide O], the “Effect on partial electron flow involving PSII only versus whole transport chain” value on PSII is recorded as “able to inhibit the electron transfer from PSII to the cytochrome b6f complex”. The “Effect on ferricyanide reduction under uncoupling and phosphorylating conditions” value (shortened to “Effect on ferricyanide reduction”) in series [2] is “progressive reduction of the activity”. Also, the IC50 in series [1] amounted to 4.37 ± 0.8 µM.
For the molecule `O=C1C=C(c2ccc(O)cc2)/C(=C/c2ccc(O)cc2)O1` [Compound 5, rubrolide E], the “IC50, inhibition by 50% of the light-dependent ferricyanide reduction” value in series [1] is recorded as “ineffective; also recorded: lack activity; also recorded: n.e. ^a”. Also, the “Inhibition of rapeseed growth at 200 μM” value in the series with rapeseed (200 μM (20-fold higher concentration)) is listed as “inhibitory”. Further, the “Inhibition of rapeseed growth” value in the series with rapeseed is reported as “inhibit rapeseed growth”. Moreover, in the series on Raphanus sativus, the “Effect on growth of Raphanus sativus seedlings (phytotoxicity)” value is on record as “ineffective”.
For `COc1ccc(/C=C2\OC(=O)C=C2c2ccc(O)cc2)cc1` [Compound 6, rubrolide F], the IC50 in series [1] is > 25 µM and 29.3 µM. Moreover, the “Inhibition of rapeseed growth” value in the series on rapeseed is recorded as “inhibit rapeseed growth”.
For `COc1ccc(/C=C2\OC(=O)C(Cl)=C2c2ccccc2)cc1` [Compound 12], the IC50 in series [1] was found to be 257 ± 273 µM.
In turn, `O=C1O/C(=C\c2ccc(F)cc2Cl)C(c2ccccc2)=C1Cl` [Compound 13] gave a melting point of 145.3 to 147 °C. Besides, the IC50 in series [1] is 35.9 ± 7.7 µM.
Molecule `COc1ccc(Cl)cc1C1=C(Cl)C(=O)O/C1=C\c1ccc2c(c1)OCO2` [Compound 15] yielded a melting point of 134.9 to 136.2 °C.
`O=C1O/C(=C\c2ccc(-c3ccccc3)s2)C(c2ccc(F)cc2)=C1Cl` [Compound 16]: the melting point was 218.3 to 219.8 °C (dec.). Further, in series [1], the IC50 was 266 ± 272 µM.
The molecule `O=C1O/C(=C\c2ccnc(Br)c2)C(c2ccc(F)cc2)=C1Cl` [Compound 17] yielded a melting point of 150.3 to 152.8 °C. The “IC50, inhibition by 50% of the light-dependent ferricyanide reduction” value in series [1] is reported as “n.e. ^a”.
Regarding `COc1ccc(C2=C(Cl)C(=O)O/C2=C\c2ccc(OC)c(Br)c2)cc1Cl` [Compound 19], the “IC50, inhibition by 50% of the light-dependent ferricyanide reduction” value in series [1] was “no activity and n.e”.
For the molecule `O=C1O/C(=C\c2ccc(O)c(Br)c2)C(c2ccc(O)c(Cl)c2)=C1Cl` [Compound 20, (Z)-5-(3-Bromo-4-hydroxybenzylidene)-3-chloro-4-(3-chloro-4-hydroxyphenyl)furan-2(5H)-one], the melting point was 210 to 213 °C (dec.). Besides, at PSII, the “Effect on partial electron flow involving PSII only versus whole transport chain” value is reported as “able to inhibit the electron transfer from PSII to the cytochrome b6f complex”. Moreover, in series [2], the “Effect on ferricyanide reduction” value is “progressive reduction of the activity”. The IC50 in series [1] worked out at 4.97 ± 1.05 µM.
With `CN(C)C(=O)Nc1ccc(Cl)c(Cl)c1` [Diuron, reference compound], at PSII, the “Effect on partial electron flow involving PSII only versus whole transport chain” value is reported as “very similar effectiveness”. Further, the IC50 in series [1] was 0.27 ± 0.01 µM.
Consider rubrolide C, for which the “Inhibition of rapeseed growth” value in the series with rapeseed is “inhibit rapeseed growth”.
Take rubrolide I [Compound 2]: on PSII, the “Effect on partial electron flow involving PSII only versus whole transport chain” value is listed as “able to inhibit the electron transfer from PSII to the cytochrome b6f complex”. Also, the “Effect on ferricyanide reduction” value in series [2] is “progressive reduction of the activity”. Moreover, the IC50 in series [1] was 5.54 ± 0.98 µM.

The values above are taken from PMC11443480, “Natural Rubrolides and Their Synthetic Congeners as Inhibitors of the Photosynthetic Electron Transport Chain” (Journal of Natural Products, 2024).
